# Reference: patent publication US9051325B2, “Bicyclic [5,6] imidazo pyrimodone compounds for use in the treatment of diseases or conditions mediated by Lp-PLA2” (GlaxoSmithKline Intellectual Property Development Limited, priority 2013, dated 2015)
# Where two headings read alike, the source gives them in different places.
# Columns and labels:
# [1] = target: T1, recombinant human Lp-PLA2 (Homo sapiens, UniProt Q13093); assay: Recombinant human Lp-PLA2 assay (rhLp-PLA2, PED6 assay); format: biochemical
# T1 sequence (Q13093 22-441): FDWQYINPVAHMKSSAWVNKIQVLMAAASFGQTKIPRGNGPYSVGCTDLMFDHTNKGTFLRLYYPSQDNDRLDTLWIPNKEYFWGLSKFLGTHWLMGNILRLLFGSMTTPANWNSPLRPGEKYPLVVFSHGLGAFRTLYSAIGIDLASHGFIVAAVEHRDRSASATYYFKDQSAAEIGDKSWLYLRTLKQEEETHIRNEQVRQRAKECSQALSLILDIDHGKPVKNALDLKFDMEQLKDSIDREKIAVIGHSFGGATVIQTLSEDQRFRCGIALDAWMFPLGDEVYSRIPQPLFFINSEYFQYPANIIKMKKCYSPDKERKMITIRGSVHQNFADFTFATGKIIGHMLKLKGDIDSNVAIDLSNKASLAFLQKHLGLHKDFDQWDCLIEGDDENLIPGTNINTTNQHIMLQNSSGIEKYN
# How it was run: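 Compounds were preincubated 30 min with 4 nM […] rhLp-PLA2 in 50 mM HEPES pH 7.4, 150 mM NaCl, 1 mM CHAPS, then PED6 substrate […] was added for 20 min at room temperature in the dark. Fluorescence was read at ex 480/em 540, and pIC50 was fitted from 1:3 serial dilutions.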
# Lp-PLA2 in human plasma = target: T2, Lp-PLA2 in human plasma (Homo sapiens, UniProt Q13093); assay: Lp-PLA2 human plasma assay (Thio-PAF assay); format: biochemical; conditions: pooled human plasma; lower bounds; read-out: pIC50 values in the thio-PAF assay (converted)
# T2 construct: from tissue; host or cells: pooled human plasma
# T2 sequence (Q13093 22-441): T1 sequence (Q13093 22-441)
# How it was run: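 Pooled human plasma preincubated 30 min with compounds, then given 2-thio-PAF substrate with CPM and NEM in 50 mM HEPES pH 7.4, 150 mM NaCl, 1 mM CHAPS. Reaction quenched after 2 min with TFA and read by fluorescence (ex 380/em 485) after 40 min at room temperature; pIC50 from curve fit.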
# [2] = lower bounds, read-out: pIC50 values in the PED6 assay (converted)
# [3] = read-out: rhLp-PLA2 (PED6 assay) (pIC50) (converted)
"IC50 [1, 2] [nM]","IC50 [1, 3] [nM]",IC50 (Lp-PLA2 in human plasma) [nM],Structure (SMILES)
≤ 1,0.0398,≤ 100,"CN1c2cc(OCc3ccc(Oc4ccnc(C(F)(F)F)c4)c(F)c3)nc(=O)n2CC1(C)C [Example E59, 7-((3-fluoro-4-((2-(trifluoromethyl)pyridin-4-yl)oxy)benzyl)oxy)-1,2,2-trimethyl-2,3-dihydroimidazo[1,2-c]pyrimidin-5(1H)-one]"
≤ 1,0.0398,≤ 100,"CN1c2cc(OCc3cc(F)c(Oc4ccc(C(F)(F)F)nc4)c(F)c3)nc(=O)n2CC1(C)C [Example E60, 7-((3,5-difluoro-4-((6-(trifluoromethyl)pyridin-3-yl)oxy)benzyl)oxy)-1,2,2-trimethyl-2,3-dihydroimidazo[1,2-c]pyrimidin-5(1H)-one]"
≤ 1,0.1,≤ 100,"CN1c2cc(OCc3ccc(Oc4cncc(Cl)c4)c(F)c3)nc(=O)n2CC1(C)C [Example E63, 7-((4-((5-chloropyridin-3-yl)oxy)-3-fluorobenzyl)oxy)-1,2,2-trimethyl-2,3-dihydroimidazo[1,2-c]pyrimidin-5(1H)-one]"
≤ 1,0.0794,≤ 100,"CN1c2cc(OCc3cc(F)c(Oc4ccc(F)nc4)c(F)c3)nc(=O)n2CC1(C)C [Example E64, 7-((3,5-difluoro-4-((6-fluoropyridin-3-yl)oxy)benzyl)oxy)-1,2,2-trimethyl-2,3-dihydroimidazo[1,2-c]pyrimidin-5(1H)-one]"
≤ 1,–,≤ 100,"CN1c2cc(OCc3ccc(Oc4ccnc(Cl)c4)c(F)c3)nc(=O)n2CC1(C)C [Example E65, 7-((4-((2-chloropyridin-4-yl)oxy)-3-fluorobenzyl)oxy)-1,2,2-trimethyl-2,3-dihydroimidazo[1,2-c]pyrimidin-5(1H)-one]"
≤ 10,–,≤ 100,"CCN1c2cc(OCc3cccc(F)c3F)nc(=O)n2CC1(C)C [Example E66, 7-((2,3-difluorobenzyl)oxy)-1-ethyl-2,2-dimethyl-2,3-dihydroimidazo[1,2-c]pyrimidin-5(1H)-one]"
≤ 10,–,≤ 100,"[2H]C([2H])(Oc1cc2n(c(=O)n1)CC(C)(C)N2C)c1cccc(F)c1F [Example E67, 7-(dideutero(2,3-difluorobenzyl)oxy)-1,2,2-trimethyl-2,3-dihydroimidazo[1,2-c]pyrimidin-5(1H)-one]"
≤ 10,–,≤ 100,"CN1c2cc(OCc3ccc(F)cc3F)nc(=O)n2CC1(C)C [Example E77, 7-((2,4-difluorobenzyl)oxy)-1,2,2-trimethyl-2,3-dihydroimidazo[1,2-c]pyrimidin-5(1H)-one]"
≤ 10,–,≤ 100,"[2H]C([2H])(Oc1cc2n(c(=O)n1)CC(C)(C)N2C)c1cc(F)cc(F)c1 [Example E93, 7-(dideutero(3,5-difluorobenzyl)oxy)-1,2,2-trimethyl-2,3-dihydroimidazo[1,2-c]pyrimidin-5(1H)-one]"
≤ 1,0.316,≤ 100,"CC(C)N1c2cc(OCc3cc(F)cc(F)c3)nc(=O)n2CC1(C)C [Example E96, 7-((3,5-difluorobenzyl)oxy)-1-isopropyl-2,2-dimethyl-2,3-dihydroimidazo[1,2-c]pyrimidin-5(1H)-one]"
≤ 1,0.631,≤ 100,"[2H]C([2H])(Oc1cc2n(c(=O)n1)CC(C)(C)N2C(C)C)c1cc(F)cc(F)c1 [Example E97, 7-(dideutero(3,5-difluorobenzyl)oxy)-1-isopropyl-2,2-dimethyl-2,3-dihydroimidazo[1,2-c]pyrimidin-5(1H)-one]"
≤ 1,–,≤ 100,"CN1c2cc(OCc3ccc(Oc4ccc(F)nc4)c(F)c3)nc(=O)n2CC1(C)C [Example E98, 7-((3-fluoro-4-((6-fluoropyridin-3-yl)oxy)benzyl)oxy)-1,2,2-trimethyl-2,3-dihydroimidazo[1,2-c]pyrimidin-5(1H)-one]"

# Continued, molecule first:
Structure (SMILES),"IC50 [1, 2] [nM]","IC50 [1, 3] [nM]",IC50 (Lp-PLA2 in human plasma) [nM]
"CN1c2cc(OCc3cc(F)c(Oc4cncc(C(F)(F)F)c4)c(F)c3)nc(=O)n2CC1(C)C [Example E61, 7-((3,5-difluoro-4-((5-(trifluoromethyl)pyridin-3-yl)oxy)benzyl)oxy)-1,2,2-trimethyl-2,3-dihydroimidazo[1,2-c]pyrimidin-5(1H)-one]",≤ 1,0.126,≤ 100
"CC1(C)Cn2c(cc(OCc3ccc(Oc4ccnc(F)c4)c(F)c3)nc2=O)N1 [Example E68, 7-((3-fluoro-4-((2-fluoropyridin-4-yl)oxy)benzyl)oxy)-2,2-dimethyl-2,3-dihydroimidazo[1,2-c]pyrimidin-5(1H)-one]",≤ 1,–,≤ 100
"CC1(C)Cn2c(cc(OCc3ccc(Oc4ccc(F)nc4)c(F)c3)nc2=O)N1 [Example E69, 7-((3-fluoro-4-((6-fluoropyridin-3-yl)oxy)benzyl)oxy)-2,2-dimethyl-2,3-dihydroimidazo[1,2-c]pyrimidin-5(1H)-one]",≤ 1,–,≤ 100
"CC1Cn2c(cc(OCc3ccc(Oc4cccc(C(F)(F)F)c4)c(C#N)c3)nc2=O)N1C (stereo not drawn) [Example E71, 5-(((1,2-dimethyl-5-oxo-1,2,3,5-tetrahydroimidazo[1,2-c]pyrimidin-7-yl)oxy)methyl)-2-(3-(trifluoromethyl)phenoxy)benzonitrile]",≤ 1,–,≤ 100
"C[C@H]1Cn2c(cc(OCc3cc(F)c(Oc4ccc(C(F)(F)F)nc4)c(F)c3)nc2=O)N1C [Example E73, (S)-7-((3,5-difluoro-4-((6-(trifluoromethyl)pyridin-3-yl)oxy)benzyl)oxy)-1,2-dimethyl-1-2,3-dihydroimidazo[1,2-c]pyrimidin-5(1H)-one]",≤ 1,–,≤ 100
"C[C@H]1Cn2c(cc(OCc3ccc(F)c(C#N)c3)nc2=O)N1 [Example E74, (S)-2-fluoro-5-(((2-methyl-5-oxo-1,2,3,5-tetrahydroimidazo[1,2-c]pyrimidin-7-yl)oxy)methyl)benzonitrile]",≤ 10,–,≤ 100
"C[C@H]1Cn2c(cc(OCc3ccc(F)c(C#N)c3)nc2=O)N1C [Example E75, (S)-5-(((1,2-dimethyl-5-oxo-1,2,3,5-tetrahydroimidazo[1,2-c]pyrimidin-7-yl)oxy)methyl)-2-fluorobenzonitrile]",≤ 10,–,≤ 100
"C[C@H]1Cn2c(cc(OCc3ccc(Oc4ccnc(C(F)(F)F)c4)c(F)c3)nc2=O)N1 [Example E78, (S)-7-((3-fluoro-4-((2-(trifluoromethyl)pyridin-4-yl)oxy)benzyl)oxy)-2-methyl-2,3-dihydroimidazo[1,2-c]pyrimidin-5(1H)-one]",≤ 1,–,≤ 100
"CC1(C)Cn2c(cc(OCc3ccc(Oc4ccnc(Cl)c4)c(F)c3)nc2=O)N1 [Example E82, 7-((4-((2-chloropyridin-4-yl)oxy)-3-fluorobenzyl)oxy)-2,2-dimethyl-2,3-dihydroimidazo[1,2-c]pyrimidin-5(1H)-one]",≤ 1,–,≤ 100
"C[C@H]1Cn2c(cc(OCc3ccc(Oc4ccc(F)c(F)c4)c(C#N)c3)nc2=O)N1C [Example E88, (S)-2-(3,4-difluorophenoxy)-5-(((1,2-dimethyl-5-oxo-1,2,3,5-tetrahydroimidazo[1,2-c]pyrimidin-7-yl)oxy)methyl)benzonitrile]",≤ 1,–,≤ 100
"C[C@H]1Cn2c(cc(OCc3ccc(Oc4ccc(Cl)c(C#N)c4)c(F)c3)nc2=O)N1C [Example E89, (S)-2-chloro-5-(4-(((1,2-dimethyl-5-oxo-1,2,3,5-tetrahydroimidazo[1,2-c]pyrimidin-7-yl)oxy)methyl)-2-fluorophenoxy)benzonitrile]",≤ 1,–,≤ 100
"CC1(C)Cn2c(cc(OCc3ccc(Oc4cncc(Cl)c4)c(F)c3)nc2=O)N1 [Example E90, 7-((4-((5-chloropyridin-3-yl)oxy)-3-fluorobenzyl)oxy)-2,2-dimethyl-2,3-dihydroimidazo[1,2-c]pyrimidin-5(1H)-one]",≤ 1,–,≤ 100
"CC1(C)Cn2c(cc(OCc3cc(F)c(Oc4cncc(C(F)(F)F)c4)c(F)c3)nc2=O)N1 [Example E91, 7-((3,5-difluoro-4-((5-(trifluoromethyl)pyridin-3-yl)oxy)benzyl)oxy)-2,2-dimethyl-2,3-dihydroimidazo[1,2-c]pyrimidin-5(1H)-one]",≤ 1,–,≤ 100
"CN1c2cc(OCc3cc(F)c(Oc4cnc(C(F)(F)F)nc4)c(F)c3)nc(=O)n2CC1(C)C [Example E95, 7-((3,5-difluoro-4-((2-(trifluoromethyl)pyrimidin-5-yl)oxy)benzyl)oxy)-1,2,2-trimet-hyl-2,3-dihydroimidazo[1,2-c]pyrimidin-5(1H)-one]",≤ 1,0.0794,≤ 100
